Reference: a melting point compilation (Tetko et al.; mined from patent text by program, amines drawn as free bases though some values may be those of a salt)

Question: With COc1ncccc1NC(=NC#N)NC(NC(=O)c1cccc(Cl)c1)C(C)(Cl)Cl (configuration not stated) as the compound, how does the melting point read?
Answer: 115 to 116 °C

Question: Which melting point does the source give for C#CC(OC(=O)C1CC1)c1ccc2ccccc2c1 (configuration not stated) here?
Answer: 65 to 66 °C

Question: For O=C1NC(=O)c2c1ccc(N1C(=O)C=CC1=O)c2N1C(=O)C=CC1=O, which melting point is on record?
Answer: 180 to 200 °C

Question: Which melting point does the source give for COc1ccc(C(C)(O)c2ocnc2C)cc1 (configuration not stated) here?
Answer: 115 to 116 °C

Question: With CCCOc1nsc(N)c1C#N as the compound, how does the melting point read?
Answer: 122 to 125 °C

Question: For CCSc1oc2ccccc2c(=S)c1C#N, which melting point is on record?
Answer: 175 to 179 °C

Question: With COc1ccc(NC(=O)C2CCCCn3c2nc(-c2ccncn2)cc3=O)c(OC)n1 (racemic) as the compound, how does the melting point read?
Answer: 231 to 233 °C

Question: Which melting point does the source give for O=C(O)Cn1sc2ccccc2c1=O here?
Answer: 236 to 238 °C

Question: For COc1cc(OC)c2c(=O)c3oc4ccc(OC)cc4c3oc2c1, which melting point is on record?
Answer: 262 to 264 °C

Question: Which melting point does the source give for O=C(Cl)c1c2ccccc2nc2ccccc12 here?
Answer: 135 °C

Question: For Cc1onc(-c2ccccc2)c1-c1ccc(S(=O)(=O)NCC(=O)O)cc1, which melting point is on record?
Answer: 242 to 248 °C

Question: Which melting point does the source give for COc1cc(OC)cc(S(=O)(=O)c2ccc([N+](=O)[O-])cc2)c1 here?
Answer: 150 to 152 °C

Question: For N[C@@H](CS(=O)(=O)O)C(=O)O, which melting point is on record?
Answer: 273 to 275 °C

Question: With CC(C)NS(=O)(=O)Cc1ccc([N+](=O)[O-])cc1 as the compound, how does the melting point read?
Answer: 146 to 147 °C

Question: Which melting point does the source give for Brc1ccc2c(c1)C(c1ccc(Oc3ccccc3)cc1)(c1ccc(Oc3ccccc3)cc1)c1cc(Br)ccc1-2 here?
Answer: 178 to 180 °C

Question: With CC1CCCN1CCN1C=c2ccc(=c3ccc4c(c3)CCN(C)C=4)cc2CC1 (configuration not stated) as the compound, how does the melting point read?
Answer: > 270 °C

Question: Which melting point does the source give for COCCOCCN1C(=O)C2(COc3cc4c(cc32)OCCO4)c2c1ccc1ncsc21 (configuration not stated) here?
Answer: 156 to 158 °C

Question: Which melting point does the source give for O=C(O)c1ccc(C(c2ccccc2)c2ccc(Cl)cc2)cn1 (configuration not stated) here?
Answer: 200 to 203 °C

Question: Which melting point does the source give for CCOC(=O)CNc1ncccc1NC(=O)c1ccccc1 here?
Answer: 115 to 116 °C

Question: With CC(CCc1ccc(F)cc1)(Cn1ccnc1)Sc1cccc(Cl)c1Cl (configuration not stated) as the compound, how does the melting point read?
Answer: 131 to 132 °C

Question: With Oc1ccccc1[C@@H]1C[C@H]2C=C(c3c[nH]c(-c4ccc(F)cc4)c3-c3ccncc3)CCN2C1 as the compound, how does the melting point read?
Answer: 195 to 196 °C

Question: For O=C(NC(Cc1ccccc1)C(=O)O)c1ccc2cc(NCc3ccccc3)ccc2c1 (configuration not stated), which melting point is on record?
Answer: 172 °C

Question: For CC/C=C\Cn1c(=S)sc2c(=O)[nH]c(N)nc21, which melting point is on record?
Answer: > 320 °C

Question: Which melting point does the source give for O=C(c1ccc(F)cc1)C1CCN(C2Sc3ccccc3NC2=O)CC1 (configuration not stated) here?
Answer: 218 °C

Question: With CCCCCCCCC(SCCCCCC)C(=O)Nc1c(F)ccc2ncccc12 (configuration not stated) as the compound, how does the melting point read?
Answer: 74 to 75 °C

Question: Which melting point does the source give for Cc1ccc(C(=O)Nc2ccc(CN(C)C)c(C(F)(F)F)c2)cc1Br here?
Answer: 156 to 157 °C

Question: With CCOC(=O)N(c1cccc(C(F)(F)F)c1)c1ccccc1[N+](=O)[O-] as the compound, how does the melting point read?
Answer: 45 to 48 °C

Question: For CCc1noc(-c2ncc3[nH]c4ccccc4c3n2)n1, which melting point is on record?
Answer: 250 to 257 °C

Question: With CCCCCCn1c(=O)n(C2OC(CO)C(O)C2O)c2nc(N)[nH]c(=O)c21 (configuration not stated) as the compound, how does the melting point read?
Answer: 196 to 199 °C

Question: For CC(=O)OC1CCC2(C)C(CCC3C2CCC2(C)C(N)C(O)CC32)C1 (configuration not stated), which melting point is on record?
Answer: 192 to 193 °C

Question: With COC(=O)c1ccc(-c2nc(-c3ccc(Cl)cc3)no2)c(N)c1 as the compound, how does the melting point read?
Answer: 227 to 228 °C

Question: For O=C(c1ccc(O)cc1)C12CC3CC(C1)CC(C(=O)c1ccc(O)cc1)(C3)C2, which melting point is on record?
Answer: 208 to 209 °C

Question: Which melting point does the source give for Cc1oc(-c2ccccc2)nc1COc1ccc(COc2nn(-c3ccccc3)cc2/C=C/C(=O)O)cc1 here?
Answer: 186 to 187 °C

Question: Which melting point does the source give for CC(CO)c1ccc(-c2ccc(F)cc2F)c(O)c1 (configuration not stated) here?
Answer: 118 °C

Question: For O=C1C2CCCCC2C(=O)N1c1ccc(Cl)cc1F (configuration not stated), which melting point is on record?
Answer: 94 to 95.5 °C

Question: With COC(=O)c1c(C#N)ccc(NC(=NC#N)Nc2ccccc2Br)c1O as the compound, how does the melting point read?
Answer: 210 to 211 °C

Question: Which melting point does the source give for COCNC(=O)NC1CCCc2ccccc21 (configuration not stated) here?
Answer: 124 to 128 °C

Question: Which melting point does the source give for O=C(NC[C@@H](C(=O)NO)N1CCCCC1)c1ccc(OCc2ccnc(Br)c2)cc1 here?
Answer: 150 °C

Question: Which melting point does the source give for NS(=O)(=O)c1cc(C=O)co1 here?
Answer: 281 to 284 °C

Question: With Nc1ccc(F)c(C(=O)Nc2ccccc2)c1 as the compound, how does the melting point read?
Answer: 120 to 122 °C

Question: For COc1ccc(-c2cc3cc(OC)c(OC)cc3c(C)n2)cc1OC, which melting point is on record?
Answer: 168 to 169 °C

Question: Which melting point does the source give for O=C1CCCC(Sc2ccccc2)C(c2ccccc2)O1 (configuration not stated) here?
Answer: 166 °C

Question: With O=C(O)C1(CSCc2ccccc2)Cc2ccccc2O1 (configuration not stated) as the compound, how does the melting point read?
Answer: 125 to 127 °C

Question: With O=c1[nH]cnc2cccnc12 as the compound, how does the melting point read?
Answer: 343 to 345 °C

Question: For Cn1ccc2c(-n3cc(C(=O)NC(=N)N)c4cccnc43)ncnc21, which melting point is on record?
Answer: > 260 °C

Question: With CC1(C)CCC(C)(C)c2cc(OCc3ccc(C(=O)O)cc3)ccc21 as the compound, how does the melting point read?
Answer: > 330 °C

Question: Which melting point does the source give for O=c1c2c(Cc3ccccc3OC(F)(F)F)n[nH]c2c2cccnc2n1-c1cccc(C(F)(F)F)c1 here?
Answer: 247 to 252 °C

Question: Which melting point does the source give for CC1(c2ccccc2)C2=C(COC2=O)Nc2cc3c(cc21)OCO3 (configuration not stated) here?
Answer: > 260 °C

Question: For CCOC(=O)c1c(CN2CCSCC2)nc2cc(OC)c(OC)cc2c1-c1ccc(OC)c(OC)c1, which melting point is on record?
Answer: 148 to 149 °C

Question: With C=CS(=O)(=O)NC(=O)Nc1nc(C)cc(C)n1 as the compound, how does the melting point read?
Answer: 131 to 133 °C

Question: With Cc1ccc(Sc2nc(-c3ccccc3)cnc2N)cc1 as the compound, how does the melting point read?
Answer: 120 to 122 °C

Question: For O=c1[nH]c2ccccc2c2nc(-c3ccco3)nn12, which melting point is on record?
Answer: 338 to 343 °C

Question: With Fc1cccc(CC[C@H]2CN(Cc3ccccc3)CCN2Cc2ccccc2)c1 as the compound, how does the melting point read?
Answer: 69 to 71 °C

Question: Which melting point does the source give for CC(C)(C)c1cc(-c2ccccc2NC(=O)CCCC(=O)O)cc(C(C)(C)C)c1O here?
Answer: 132 to 134 °C

Question: For CC12CCC(=O)C=C1NCC1C2CCC2(C)C(C(=S)c3ccccn3)CCC12 (configuration not stated), which melting point is on record?
Answer: 190 to 202 °C

Question: Which melting point does the source give for COC(=O)c1c(F)c(F)c(N=[N+]=[N-])c(F)c1F here?
Answer: 53.6 to 54.3 °C

Question: With Cc1onc2c1N(CCCOc1ccccc1)C(=O)COC2(C)c1ccccc1 (configuration not stated) as the compound, how does the melting point read?
Answer: 118 to 120 °C

Question: Which melting point does the source give for O=C1C(=O)c2ccccc2C2=C1SCC1(CCN(CCCc3ccccc3)CC1)O2 here?
Answer: 112 to 114 °C

Question: With CCc1nc2c(cnn2CC)c(NC2CCOCC2)c1CNC(=O)c1cc(C)cc(C(=O)NCc2ccc(OC)c(-c3cccc(CC4CCN(C)CC4)c3)c2)c1 as the compound, how does the melting point read?
Answer: 115 to 117 °C

Question: For CCCCCCc1c(CCCC)nc2ncnn2c1N, which melting point is on record?
Answer: 134 to 136 °C

Question: Which melting point does the source give for O=C(C=Cc1cc(OC(=O)c2ccccc2)c(OC(=O)c2ccccc2)c([N+](=O)[O-])c1)c1ccccc1 here?
Answer: 206 to 210 °C

Question: Which melting point does the source give for Cc1cc(C)c2c(c1)c(-c1ccccc1Cl)c(NC(=O)Nc1c(C)cccc1C(C)C)c(=O)n2C here?
Answer: 203 to 204 °C

Question: For COc1ccc(C(=O)Nc2ccccc2)cc1NC(=S)Nc1ccc(Cl)c(Cl)c1, which melting point is on record?
Answer: 174 to 175 °C

Question: With CCn1ncc2c(NCC3CCCCC3)c3cccc(Br)c3nc21 as the compound, how does the melting point read?
Answer: 160 to 162 °C

Question: With Cc1oc(-c2ccccc2)nc1COc1cccc(COc2ccccc2CC(=O)O)c1 as the compound, how does the melting point read?
Answer: 117 to 118 °C

Question: With COC(=O)C[C@H](O)C[C@H](O)CCc1c(-c2ccc(F)cc2)c(-c2ccc(F)cc2)c(C(=O)Nc2cccc(C(=O)N(C)C)c2)n1C(C)C as the compound, how does the melting point read?
Answer: 95 to 98 °C

Question: With Cc1ccc(-c2cccc(/C=C/C(=O)Nc3ccc(Cc4ccccn4)cc3)c2)cc1 as the compound, how does the melting point read?
Answer: 169 to 171 °C

Question: Which melting point does the source give for Cc1nc(N)nc(N)c1-c1cc(NS(C)(=O)=O)ccc1Cl here?
Answer: 234 to 240 °C

Question: Which melting point does the source give for CCOC(=O)CCc1ccc2c(CCC(=O)OCC)c(O)ccc2n1 here?
Answer: 74 to 76 °C

Question: With CCCCC(C(=O)O)n1cncn1 (configuration not stated) as the compound, how does the melting point read?
Answer: 141 to 143 °C

Question: With COc1ccccc1-n1c(=O)[nH]c2c(C(N)=O)nc(Nc3ccccc3O)nc21 as the compound, how does the melting point read?
Answer: 314 to 315 °C

Question: Which melting point does the source give for CCOC(=O)CNC(=O)c1ncc(O)cc1O here?
Answer: 96 to 98 °C
